Measurements as given in US9977030B2, “Detection of shed CD31, diagnosis of atherothrombosis and autoimmune disorders, and methods for analyzing signaling pathways” (INSTITUT NATIONAL DE LA SANTE ET DE LA RECHERCHE MEDICALE …, priority 2008, dated 2018).

Test system: CD31 signaling complex captured by PECAM1.2 (CD31 domain 6) beads
Test: CBA beads assessment of CD31 ITIM-dependent inhibitory pathway in Jurkat T cells (protein association and phosphorylation)
Format: cell-based, human
Protocol: Lysis of the cells. Jurkat T cells in log phase (10×10^6/ml, 1 ml) were either left untouched (negative control) or incubated with Na3VO4/H2O2 (sodium ortovanadate which is a tyrosin phosphatase inhibitor, positive control for tyrosin phosphorylation). In parallel, cells were stimulated either with CD3 or with CD3+ CD31 (domain 2, WM-59 antibody) by antibody-mediated crosslinking. After 20′ incubation at 37° C. in 5% CO2, the cells were lysed on ice for 30′ with a RIPA buffer containing a cocktail of protease and phosphatase inhibitors. Lysates were ultragentrifuged and supernatants were used either straightforward or aliquoted and stored at −20° for further analysis.
Capture of the target protein on a solid support (1 hour at room temperature). This step follows the principle of imunoprecipitation but the signaling complex is nor denatured neither reduced, and no electrophoresis and/or blotting is carried out. As a solid support, CBA® functional beads previously coupled with an antibody directed to the membrane-proximal CD31 Ig-like domain 6 (clone MBC 78.2 also called PECAM1.2) were used following the manufacturer's instructions. An aliquot of 20 μl of lysate supernatant from each condition was incubated with 5 μl PECAM1.2-CBA® for 1 hour at room temperature.
Detection of molecules associated with CD31 and of the phosphorylation state of CD31 ITIM 686. After washing of the beads once with CBA washing buffer (100 μl/tube), the beads were been aliquoted in 4 separate tubes and incubated with fluorescent antibodies directed to: • CD3-FITC; • CD28-PE; • CD31 domain 6 (PECAM1.2 FITC) • CD31 domain 2 (WM-59 PE) • phosphoTyrosin (clone 4G10 FITC); • phosphoSerin/Threonin (labelled with FITC) • CD31 phosphotyrosin 686 (rabbit polyclonal conjugated with alexafluor 488 antirabbit secondary antibody); or • SHP2-PE.
After 1 hour incubation at room temperature in the dark, beads were washed once with 100 μl CBA washing buffer and more than 600 beads were acquired using an LSR II and DIVA® software.
4. Analysis. The median fluorescence in each fluorescent channel was recorded. The DIVA® software also calculated the % CV (variability coefficient), which can be considered as an equivalent of error bar value for repeated measure and allow statistical comparison between samples.

[1] = Jurkat T cell lysate, 20' incubation, captured on PECAM1.2-CBA beads

sodium ortovanadate [Na3VO4/H2O2]
MFI CD3 (CD3 associated with bead-captured CD31, Jurkat T cells): 354 MFI | MFI CD28 (CD28 associated with bead-captured CD31, Jurkat T cells): 3932 MFI | % shed CD31 [1]: 25% | CD31 dom2 [1]: 77 ng/mL | CD31 dom6 [1]: 103 ng/mL | MFI SHP-2 (SHP-2 associated with bead-captured CD31, Jurkat T cells): 193 MFI | MFI CD31 pY686 (bead-captured CD31, Jurkat T cells): 10667 MFI | MFI pSer/pThreo (phosphoSerin/Threonin on bead-captured CD31 complex, Jurkat T cells): 324 MFI | MFI pY (4G10) (total phosphoTyrosin on bead-captured CD31 complex, Jurkat T cells): 1205 MFI
